Measurements: patent US9023844B2, “Heterocyclylpyri (mi) dinylpyrazole as fungicidals” (Bayer Intellectual Property GmbH, priority 2011, dated 2015)
Where two headings read alike, the source gives them in different places.

Columns and labels:
[1] = tested on: Leptosphaeria nodorum; assay: Example C: Leptosphaeria test (wheat) / preventive; format: in vivo
[2] = tested on: Sphaerotheca fuliginea; assay: Example A: Sphaerotheca test (cucumber) / preventive; format: in vivo
[3] = tested on: Plasmopara viticola; assay: Example H: Plasmopara test (grapevines) / preventive; format: in vivo
[4] = tested on: Pyricularia oryzae; format: in vivo
[5] = tested on: Pyrenophora teres; assay: Example D: Pyrenophora test (barley) / preventive; format: in vivo
[6] = tested on: Phytophthora infestans; format: in vivo
[7] = tested on: Uromyces appendiculatus; assay: Example B: Uromyces test (beans) / preventive; format: in vivo
[8] = tested on: Fusarium graminearum; assay: microbe, parasite or virus in culture; format: cell-based; conditions: for Growth inhibition of Fusarium graminearum in %: at 50 μM
[9] = tested on: DON/Acetyl-DON production by Fusarium graminearum; assay: microbe, parasite or virus in culture; format: cell-based; conditions: at 50 μM
[10] = tested on: Puccinia recondita; assay: Example E: Puccinia test (wheat) / preventive; format: in vivo
[11] = tested on: Fusarium nivale (var. majus); assay: Example K: Fusarium nivale (var. majus) test (wheat) / preventive; format: in vivo; conditions: 500 ppm of active ingredient, preventive spray, evaluated 5 days after inoculation
Procedure: After the spray coating has been dried, the plants are slightly injured by using a sandblast and afterwards they are sprayed with a conidia suspension of Fusarium nivale (var. majus).
The test is evaluated 5 days after the inoculation.

[12] = Determination of log P values by HPLC on a reverse phase column (C18), EEC-Directive 79/831 Annex V.A8 (Methods A, B, C); format: physicochemical; conditions: for chromatographic logP: reverse phase C18 HPLC column
How it was run: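 Three C18 chromatographic methods following EEC-Directive 79/831 Annex V.A8 gave the logP values. Method C (UPLC, 2.1 mm column) ran at 40 °C and 0.8 mL/min with a 3.25 min 10–95% acetonitrile gradient. Methods A and B both ran at 55 °C and 2.0 mL/min, with gradients of 10–95% in 4.25 min and 5–95% in 1.70 min.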

[13] = tested on: Septoria tritici; assay: Example J: Septoria tritici test (wheat) / preventive; format: in vivo
[14] = tested on: Venturia inaequalis; assay: Example I: Venturia test (apples) / preventive; conditions: 100 ppm of active ingredient, preventive spray, evaluated 10 days after inoculation
Procedure: After the spray coating has dried on, the plants are inoculated with an aqueous conidia suspension of the causal agent of apple scab (Venturia inaequalis) and then remain for 1 day in an incubation cabinet at approximately 20° C. and a relative atmospheric humidity of 100%.
The plants are then placed in a greenhouse at approximately 21° C. and a relative atmospheric humidity of approximately 90%.
The test is evaluated 10 days after the inoculation.

[15] = tested on: Fusarium graminearum; format: in vivo
[16] = 500 ppm of active ingredient, wheat, preventive spray, evaluated 7-9 days after inoculation
[17] = Method B (HPLC, reverse phase C18)

Row | Compound | efficacy [11] | efficacy [14] | efficacy ([1]; in vivo) | efficacy ([2]; in vivo) | efficacy ([3]; in vivo) | efficacy ([4]; in vivo) | efficacy ([5]; in vivo) | efficacy ([6]; in vivo) | efficacy ([7]; in vivo) | Growth inhibition of Fusarium graminearum in % [8] | Inhibition of DON/AcDON in % [9] | efficacy ([10]; in vivo) | efficacy ([13]; in vivo) | efficacy ([15]; in vivo) | LogP [12, 17] | also measured
1 | O=C(Nc1cc(-c2c(-c3ccc(F)cc3)nn3c2OCCC3)ccn1)C1CC1 [Example 4, N-{4-[2-(4-fluorophenyl)-6,7-dihydro-5H-pyrazolo[5,1-b][1,3]oxazin-3-yl]pyridin-2-yl}cyclo-propanecarboxamide] | 100% | 95% |  |  |  |  |  |  |  |  |  |  |  |  |  | efficacy [1, 16]: 90%; efficacy ([2]; 500 ppm of active ingredient, cucumber, preventive spray, evaluated 7 days after inoculation): 100%; efficacy ([3]; 100 ppm of active ingredient, grapevines, preventive spray, evaluated 6 days after inoculation): 100%; efficacy ([4]; 500 ppm of active ingredient, rice, preventive spray, evaluated 7 days after inoculation): 100%; efficacy ([5]; 500 ppm of active ingredient, barley, preventive spray, evaluated 7-9 days after inoculation): 100%; efficacy ([6]; 100 ppm of active ingredient, tomatoes, preventive spray, evaluated 3 days after inoculation): 94%; efficacy ([7]; 500 ppm of active ingredient, beans, preventive spray, evaluated 6-8 days after inoculation): 90%; inhibition at 50 µM ([8]; Fusarium graminearum, read-out: Growth inhibition of Fusarium graminearum in %): 69%; inhibition at 50 µM ([9]; Fusarium graminearum, read-out: Inhibition of DON/AcDON in %): 99%; efficacy [10, 16]: 100%; chromatographic logP ([12]; Method B (HPLC, reverse phase C18), read-out: LogP): 1.47; chromatographic logP ([12]; pH 2.7, values in the synthesis examples, HPLC, reverse phase C18, read-out: log P (pH 2.7)): 1.39; efficacy ([13]; 500 ppm of active ingredient, wheat, preventive spray, evaluated 21 days after inoculation): 80%; efficacy ([15]; 500 ppm of active ingredient, barley, preventive spray, evaluated 5 days after inoculation): 100%
2 | CCC(=O)Nc1cc(-c2c(-c3ccc(F)cc3)nn3c2OCCC3)ccn1 [Example 5] | 100% | 98% | 90% | 95% | 100% | 100% | 95% | 95% | 93% | 62% | 100% | 100% | 92% | 100% |  | LogP ([12]; Method A: HPLC, reverse phase C18, acetonitrile (0.1% formic acid)/water (0.09% formic acid) gradient): 1.46
3 | CCOC(=O)Nc1cc(-c2c(-c3ccccc3)nn3c2OCCC3)ccn1 [Example 9] | 93% | 100% | 95% | 95% | 94% | 94% | 100% | 95% | 94% | 100% | 100% | 100% | 80% | 100% | 1.51 | 
4 | CCC(C)C(=O)Nc1cc(-c2c(-c3ccccc3)nn3c2OCCC3)ccn1 (stereo not drawn) [Example 10] | 100% | 99% | 80% | 100% | 94% | 94% | 80% | 95% | 94% | 95% | 100% | 100% | 86% | 90% | 1.63 | 
5 | CC(C)C(=O)Nc1cc(-c2c(-c3ccc(F)cc3)nn3c2OCCC3)ccn1 [Example 22] | 100% | 99% | 90% | 100% | 100% | 94% | 95% | 95% | 94% | 99% | 100% | 100% | 100% | 100% | 1.54 | 
6 | O=C(Nc1cc(-c2c(-c3ccc(F)cc3)nn3c2OCCC3)ccn1)C1CCOCC1 [Example 28] | 100% | 98% | 95% | 100% | 92% | 94% | 95% | 95% | 94% | 94% | 99% | 100% | 88% | 86% | 1.37 | 
7 | CCC(=O)Nc1cc(-c2c(-c3ccc(F)cc3F)nn3c2OCCC3)ccn1 [Example 35] | 100% | 100% | 80% |  | 95% | 94% | 95% | 99% | 92% | 100% | 99% | 100% | 100% | 100% | 1.34 | 
